Entries after “also recorded” stand apart in the source; their conditions may differ.
Legend:
Format in all cases: in vivo
Details in all cases: aged male mice (21-24 months), daily subcutaneous BAPN for 4 weeks, vs saline
[1] = tested on: medial tibial cartilage of aged male C57/BL6 mice; experiment: BAPN daily injection in aged mice, cartilage histology (OARSI score)
Procedure: (§1) Aged male C57/BL6 mice (21-24 months; body mass) received daily subcutaneous injections of either saline, as a control, or BAPN (290 μg/μ1 in saline) for 4 weeks every day. Volume of the injection (40-80 μl) was determined based on mice body mass (m) with following protocol: 40 μl (18.45 g≤m≤23.73 g), 50 μl (23.73 g≤m≤29.00 g), 60 ul (29.00 g≤m≤34.27 g), 70 μl (34.27 g≤m≤39.55 g), 80 μl (39.55 g≤m≤44.82 g). Mice were weighed every other day beginning on day 0 and ending on day 28 to ensure proper dosage of BAPN.
Mice knee joints and human cartilage samples were fixed in 4% paraformaldehyde overnight at 4° C., and decalcified in 20% ethylene diamine tetra acetic acid solution for 10 days. Decalcified paraffin sections (5 μm thickness) were prepared from central region of the mice knee joints in the frontal plane in accordance with the OARSI recommendation (Glasson, et al., Osteoarthritis Cartilage 18 Suppl 3, S17-23 (2010)). Decalcified paraffin sections from human cartilage specimen were also prepared. […] The OARSI scoring system, consisting of six grades and four stages on a scale from 0 (normal) to 24 (severe cartilage lesion), was used for semi-quantitative evaluation of cartilage lesion severity (Pritzker, et al., Osteoarthritis Cartilage 14, 13-29 (2006)). The most severe score was evaluated as the maximum OARSI score. […]

α-Klotho = experiment: BAPN daily injection in aged mice, α-Klotho immunofluorescence in chondrocytes
Procedure: as §1
Immunofluorescence analysis for tissue section and/or cell-seeded pAAm gel was performed to determine the signal intensity of type II collagen, α-Klotho, Lamin A/C, and Lamin B2 in accordance with established protocol (Sahu, et al., 2018, supra). Briefly, after a triple wash by PBS, cells were permeabilized with 0.1% triton-X (Fluka 93420) for 15 minutes, followed by a one-hour blocking step using 0.1% triton-X with 3% Bovine Serum Albumin (BSA, Sigma A7906) in PBS. The cells were then incubated with primary antibodies for overnight at 4° C. A similar process was followed for the decalcified tissue paraffin. […]
Slides were imaged using a Zeiss Observer Z1 semi-confocal microscope. […] All images for quantitative analysis in a given experiment were taken under the same imaging conditions. Fluorescence intensity was quantified using Image J

[2] = tested on: chondrocyte nuclear morphology; experiment: BAPN daily injection in aged mice, chondrocyte nuclear morphology (CellProfiler, PCA)
Procedure: as §1
DAPI and F-actin images were obtained at 63× and 20× magnification using a Zeiss Observer Z1 semi-confocal microscope, respectively. Afterwards, image processing and morphome feature extraction were performed using CellProfiler software (v4.0, The Broad Institute) (Carpenter et al., Genome Biol 7, R100 (2006)). Fifty-three shape features of cell and nuclei were determined using the “identify primary objects” followed by the “measure object size shape” and “export to spread sheet” module. Principal Component Analysis (PCA) was performed for the data reduction identifying the principal components (PCs) that represent the differences in the cellular and nuclear morphology. To determine variables of cellular and nuclear shape contributing to PCs, loading matrix, a correlation between the original variable and PCs, were extracted.

N#CCCN [BAPN, β-aminopropionitrile]
cartilage integrity (OARSI score) [1]: improves cartilage integrity
α-Klotho expression in chondrocytes (α-Klotho): significantly increased α-Klotho levels; also recorded: increased α-Klotho expression; also recorded: improves α-Klotho expression
nuclear eccentricity of chondrocytes [2]: decreased nuclear eccentricity; also recorded: decreases nuclear eccentricity towards young level
